Experimental findings from patent US20260184663A1, “INDENE COMPOUNDS, PHARMACEUTICAL COMPOSITIONS THEREOF, AND THEIR THERAPEUTIC APPLICATIONS” (NucMito Pharmaceuticals co. Ltd., priority 2022, published 2026) are described below.

What all share (type): cell-based
In experiment [1] the test system is A549 (lung adenocarcinoma). The experiment can be described thus: Antiproliferative activity (CCK-8 cell viability), A549. To be noted: Homo sapiens, 72 h; for inhibition at 3.3 µM: Compound concentration: 3.3 μM; for inhibition at 3.3 µM / inhibition at 10 µM: read-out: Antiproliferative activity in cancerous cells, A549 (inhibition of cell growth); for inhibition at 10 µM: Compound concentration: 10 μM. Summed up: (§1)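 Cells grown in DMEM (HepG2, SW480), MEM (HeLa) or F-12K (A549), each with 10% FBS, then exposed to compound at 3.3, 10 or 30 μM for 72 h at 37 °C. CCK-8 absorbance at 450 nm; viability expressed as percent of DMSO-treated cells, graded as growth inhibition bands.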

The subject of experiment [2] is A431 (epidermoid carcinoma). Nature of the experiment: Antiproliferative activity (CCK-8 cell viability), A431. To be noted: Homo sapiens, 72 h, read-out: Antiproliferative activity in cancerous cells, A431 (inhibition of cell growth); for inhibition at 3.3 µM: A-431, Compound concentration: 3.3 μM; for inhibition at 10 µM: A-431, Compound concentration: 10 μM. Summed up: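 A431 epidermoid carcinoma cells grown in DMEM with 10% FBS were plated at 2,000-5,000 cells/well in 96-well plates. After attachment they were exposed to compound at 3.3 μM, 10 μM, or 30 μM for 72 h at 37° C. Viability was then assessed by CCK-8 against DMSO vehicle-treated wells.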

Experiment [3] has as its system HepG2 (liver cancer). Nature of the experiment: Antiproliferative activity (CCK-8 cell viability), HepG2. Particulars: Homo sapiens, 72 h, read-out: Antiproliferative activity in cancerous cells, HepG2 (inhibition of cell growth); for inhibition at 3.3 µM: Compound concentration: 3.3 μM; for inhibition at 10 µM: Compound concentration: 10 μM. Put shortly:
as §1

In experiment [4] the test system is SW480 (colon cancer). Nature of the experiment: Antiproliferative activity (CCK-8 cell viability), SW480. To be noted: Homo sapiens, 72 h, read-out: Antiproliferative activity in cancerous cells, SW480 (inhibition of cell growth); for inhibition at 3.3 µM: Compound concentration: 3.3 μM; for inhibition at 10 µM: Compound concentration: 10 μM. Summed up: as §1
Experiment [5] has as its system HeLa (cervical cancer). The experiment can be described thus: Antiproliferative activity (CCK-8 cell viability), HeLa. To be noted: Homo sapiens, 72 h, read-out: Antiproliferative activity in cancerous cells, HELA (inhibition of cell growth); for inhibition at 3.3 µM: Compound concentration: 3.3 μM; for inhibition at 10 µM: Compound concentration: 10 μM. Summed up: as §1

Experiment [6] concerns MDA-MB-231 (breast cancer). The experiment can be described thus: Antiproliferative activity (CCK-8 cell viability), MDA-MB-231. To be noted: Homo sapiens, 72 h; for inhibition at 3.3 µM: Compound concentration: 3.3 μM; for inhibition at 3.3 µM / inhibition at 10 µM: read-out: Antiproliferative activity in cancerous cells, MDA-MB-231 (inhibition of cell growth); for inhibition at 10 µM: Compound concentration: 10 μM. Put shortly:
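MDA-MB-231 breast cancer cells, grown in DMEM with 10% FBS, were plated in 96-well plates at 2,000-5,000 cells/well. Once attached, they were exposed to compound and incubated at 37° C. for 72 h. Viability was then measured with CCK-8 (10 μL per well, 4 h at 37° C.) by absorbance at 450 nm, relative to DMSO vehicle wells.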

The subject of experiment [7] is B16F10 (malignant melanoma). Nature of the experiment: Antiproliferative activity (CCK-8 cell viability), B16F10. To be noted: Mus musculus, 72 h, read-out: Antiproliferative activity in cancerous cells, B16F10 (inhibition of cell growth); for inhibition at 3.3 µM: B16-F10, Compound concentration: 3.3 μM; for inhibition at 10 µM: B16-F10, Compound concentration: 10 μM. Summed up:
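B16F10 melanoma cells grown in DMEM with 10% FBS were plated in 96-well plates at 2,000-5,000 cells/well. After attachment they were exposed to compound in medium for 72 h at 37° C. CCK-8 solution (10 μL) was then added, and after 4 h at 37° C absorbance was read at 450 nm.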

Each structure is given as a SMILES string. Some results are limits rather than exact numbers.

In the case of `COc1ccc(COCc2ccc(/C=C3/C(C)=C(CC(=O)O)c4cc(F)ccc43)cc2)cc1Cl` [B108, (Z)-2-(1-(4-(((3-Chloro-4-methoxybenzyl)oxy)methyl)benzylidene)-5-fluoro-2-methyl-1H-inden-3-yl)acetic acid], the inhibition at 3.3 µM was 30 to 50% in experiment [1]; 30 to 50% in experiment [2]; less than 30% in experiment [3]; less than 30% in experiment [4]; 30 to 50% in experiment [5]; no less than 50% in experiment [6]. Moreover, the inhibition at 3.3 µM in experiment [7] was 30 to 50%. In addition, the inhibition at 10 µM in experiment [1], in experiment [2], in experiment [3], in experiment [4], in experiment [5] and in experiment [6] was no less than 50% throughout. For the same compound, the inhibition at 10 µM in experiment [7] was no less than 50%.

As for `CC1=C(CC(=O)O)c2cc(F)ccc2/C1=C\c1ccc(Oc2ccc(Cl)cc2F)cc1` [C52, (Z)-2-(1-(4-(4-Chloro-2-fluorophenoxy)benzylidene)-5-fluoro-2-methyl-1H-inden-3-yl)acetic acid], the inhibition at 3.3 µM in experiment [1] was 30 to 50%; in experiment [2], no less than 50%; in experiment [3], less than 30%; in experiment [4] it was less than 30%; in experiment [5], 30 to 50%; in experiment [6] it was 30 to 50%. The inhibition at 3.3 µM in experiment [7] was no less than 50%. The inhibition at 10 µM in experiment [1], in experiment [2], in experiment [3], in experiment [4], in experiment [5] and in experiment [6] was no less than 50% in each case. In experiment [7], the inhibition at 10 µM is no less than 50%.

Take `CC1=C(CC(=O)O)c2cc(F)ccc2/C1=C\c1cccc(Oc2ccc(C)cc2)c1` [C96, (Z)-2-(5-Fluoro-2-methyl-1-(3-(p-tolyloxy)benzylidene)-1H-inden-3-yl)acetic acid]: the inhibition at 3.3 µM in experiment [1] is less than 30%; in experiment [2], no less than 50%; in experiment [3], 30 to 50%; in experiment [4], less than 30%; in experiment [5], 30 to 50%; in experiment [6] it was less than 30%. For the same compound, the inhibition at 3.3 µM in experiment [7] was 30 to 50%. Also, the inhibition at 10 µM in experiment [1] is no less than 50%; in experiment [2], no less than 50%; in experiment [3] it was no less than 50%; in experiment [4] it was less than 30%; in experiment [5] it was no less than 50%; in experiment [6], less than 30%. For the same compound, the inhibition at 10 µM in experiment [7] lay within 30 to 50%.

On to `CC1=C(CC(=O)O)c2cc(C)ccc2/C1=C\c1ccc(COc2ccc(C(F)(F)F)cc2)cc1` [B59, (Z)-2-(2,5-Dimethyl-1-(4-((4-(trifluoromethyl)phenoxy)methyl)benzylidene)-1H-inden-3-yl)acetic acid], for which the inhibition at 3.3 µM is less than 30% in experiment [1]; no less than 50% in experiment [2]; less than 30% in experiment [3]; less than 30% in experiment [4]; 30 to 50% in experiment [5]; less than 30% in experiment [6]. For the same compound, the inhibition at 3.3 µM in experiment [7] is 30 to 50%. Further, the inhibition at 10 µM in experiment [1] was 30 to 50%; in experiment [2], no less than 50%; in experiment [3] it was less than 30%; in experiment [4], 30 to 50%; in experiment [5], 30 to 50%; in experiment [6] it was less than 30%. Besides, the inhibition at 10 µM in experiment [7] was no less than 50%. For the same compound, the inhibition at 30 µM was 30 to 50% in experiment [1] (Compound concentration: 30 μM, read-out: Antiproliferative activity in cancerous cells, A549) and less than 30% in experiment [6] (Compound concentration: 30 μM, read-out: Antiproliferative activity in cancerous cells, MDA-MB-231).
